We go through 31 compounds from publication PMC9818789, “Identification of Small-Molecule Bioactive Constituents from the Leaves of Vaccinium bracteatum Confirms It as a Potential Functional Food with Health Benefits” (Foods, 2023).

SMILES strings stand for the structures.

A short description of experiment [1]: ABTS radical scavenging assay. The conditions noted are these: mean ± SD (n = 3); NA = not active (<50% radical scavenging activity at the highest testing concentration of 200 μM); read-out: ABTS free radical scavenging activity IC50.
Method: The antioxidant effect of the VBL constituents was assessed by besting their free radical scavenging activity with the ABTS (diammonium 2,2′-azino-bis (3-ethylbenzothiazoline-6-sulphonate) and DPPH (1,1-diphenyl-2-picrylhydrazyl) methods, according to the protocols described previously [10], and ascorbic acid was used as the positive control.
Experiment [2] can be described thus: DPPH radical scavenging assay. The following applies: mean ± SD (n = 3); NA = not active (<50% radical scavenging activity at the highest testing concentration of 200 μM); read-out: DPPH free radical scavenging activity IC50. The protocol:
The antioxidant effect of the VBL constituents was assessed by besting their free radical scavenging activity with the ABTS (diammonium 2,2′-azino-bis (3-ethylbenzothiazoline-6-sulphonate) and DPPH (1,1-diphenyl-2-picrylhydrazyl) methods, according to the protocols described previously, and ascorbic acid was used as the positive control.

The subject of experiment [3] is PC12 cells. Briefly: Neuroprotective assay: 6-OHDA-induced PC12 cell injury, MTT. The format is cell-based. The conditions noted are these: for Neuroprotective effect against 6-OHDA-induced PC12 cell injury (cell viability): pretreated 12 h, 6-OHDA 150 μM for 13 h. The protocol:
The cell cultures were prepared according to the method described by Sergi et al.. Briefly, the protection of compounds 1–8 on 6-hydroxydopamine (6-OHDA)-induced PC 12 cell injury was assessed by MTT (3-(4,5-dimethylthiazol-2-yl)-2,5-diphenyltetrazolium bromide) assay, and N-acetylcysteine (NAC, 50 μM) was used as the positive control. PC12 cells were cultured in RPMI 1640 medium supplemented with 10% fetal bovine serum (FBS), and they were incubated at 37
C in a humidified environment containing 5% CO2 and then cultured in 96-well plates at a density of 1.5 × 10^5 cells/well in 100 μL for 24 h. The neuron cells were first pretreated with various concentrations (25, 50, 100 μM) of tested compounds for 12 h before 6-OHDA (150 μM) treatment for further 13 h. Then, 10 μL of MTT was added to each well and incubated for another 4 h, and the crystals were dissolved with DMSO. The optical density at 490 nm was detected by a plate reader. The cell viability was lastly measured to evaluate the compounds’ protective effect, which was expressed as the percentage of the control group.

Experiment [4] relates to NO production in RAW264.7 macrophages. In words: NO production inhibitory assay, lipopolysaccharide-induced macrophages. Format: cell-based. The conditions noted are these: Mus musculus, lipopolysaccharide-induced murine macrophages, read-out: NO production inhibition IC50. The protocol: The nitric oxide (NO) production inhibitory assay was conducted in murine RAW264.7 macrophages as we recorded in an early report, with quercetin as the reference compound.

With `COc1cc([C@H]2Oc3c(O)cc(CCCO)cc3[C@@H]2CO)ccc1O` [Compound 12a, cedrusin], the half-inhibitory concentration (IC50) in experiment [1] was 9.54 ± 0.64 µM; in experiment [2], 31.2 ± 1.9 µM. On to `COC1CC2C(O)CC(O)(COC(=O)C=Cc3ccc(O)cc3)C2C(OC)O1` (stereo not shown) [Compound 8], for which the IC50 in experiment [1] was found to be 39.1 ± 2.3 µM. Take `CO[C@H]1C[C@@H]2[C@H]([C@H](OC)O1)[C@@](O)(COC(=O)/C=C\c1ccc(O)cc1)C[C@H]2O` [Compound 6]: the concentration for half-maximal inhibition (IC50) in experiment [1] was determined as 28.2 ± 0.63 µM. For the same compound, the “Neuroprotective effect against 6-OHDA-induced PC12 cell injury (cell viability)” value (from here on “Neuroprotective effect … (cell viability)”) in experiment [3] (compound 50 μM) is given as “apparent protective activity”.

For the compound `COc1cc([C@@H](O)[C@@H](CO)Oc2ccc(CCCO)cc2OC)ccc1O` [Compound 11a, threo-4,7,9,9′-tetrahydroxy-3,3′-dimethoxy-8,4′-oxyneolignane], the IC50 worked out at 12.1 ± 1.42 µM in experiment [1] and 98.7 ± 1.78 µM in experiment [2]. `COc1cc(C2OC(c3cc(OC)c(O)c(OC)c3)C(CO)C2CO)cc(OC)c1O` (stereo not shown) [Compound 18b, icariol A2]: the concentration for half-maximal inhibition (IC50) in experiment [2] was 17.9 ± 4.58 µM.

Regarding `COc1cc(C2c3c(cc(OC)c(O)c3OC)CC(CO)C2CO)cc(OC)c1O` (stereo not shown) [Compound 16a, polystachyol], the half-maximal inhibitory concentration (IC50) in experiment [1] was 11.1 ± 3.31 µM; in experiment [2], 47.9 ± 6.6 µM. Consider `COc1cc([C@@H](O)[C@H](CO)Oc2ccc(CCCO)cc2OC)ccc1O` [Compound 10b, erythro-4,7,9,9′-tetrahydroxy-3,3′-dimethoxy-8,4′-oxyneolignane], for which, in experiment [1], the concentration for half-maximal inhibition (IC50) was 16.2 ± 2.65 µM. Still for that read-out and setting: then `COc1cc([C@H](O)[C@@H](CO)Oc2ccc(CCCO)cc2OC)ccc1O` [Compound 10a, erythro-4,7,9,9′-tetrahydroxy-3,3′-dimethoxy-8,4′-oxyneolignane], with 19.7 ± 0.61 µM. On to `COc1cc(C2OC(c3cc(OC)c(O)c(OC)c3)C(CO)C2CO)cc(OC)c1O` (stereo not shown) [Compound 18a, icariol A2], for which the IC50 in experiment [1] was found to be 6.87 ± 0.54 µM; in experiment [2] it was 17.3 ± 7.51 µM. For the compound `COc1cc([C@H](O)[C@H](CO)Oc2ccc(CCCO)cc2OC)ccc1O` [Compound 11b, threo-4,7,9,9′-tetrahydroxy-3,3′-dimethoxy-8,4′-oxyneolignane], the IC50 in experiment [1] came out at 14.8 ± 1.25 µM; in experiment [2], 105 ± 4.11 µM. For `COc1cc(C2OC(c3ccc(O)c(OC)c3)C(CO)C2CO)ccc1O` (stereo not shown) [Compound 17b, neo-olivil] the same measures were 7.75 ± 0.71 µM and 62.9 ± 5.65 µM. Turning to `COc1cc([C@@H]2Oc3c(OC)cc(CCCO)cc3[C@H]2CO)ccc1O` [Compound 14a, dihydrodehydrodiconiferyl alcohol], the values for the 50% inhibitory concentration (IC50) in experiment [1] and in experiment [4] were 12.3 ± 1.82 µM and 52.2 ± 6.17 µM, respectively.

`COc1cc(CCCO)cc(OC)c1OC(CO)CO` [Compound 22, 3-deoxyartselaenin C]: the IC50 in experiment [1] was 168 ± 4.34 µM; in experiment [2], 20.2 ± 3.53 µM. With `COc1ccc([C@H]2Oc3c(O)cc(CCCO)cc3[C@@H]2CO)cc1OC` [Compound 13a, 4-O-methylcedrusin], in experiment [1], the half-inhibitory concentration (IC50) is 21.7 ± 3.5 µM. For the compound `COc1cc([C@@H]2Oc3c(OC)cc(CCCO)cc3[C@H]2CO)cc(OC)c1O` [Compound 15b, 5-methoxydihydrodehydrodiconiferyl alcohol], the IC50 came out at 24.2 ± 3.92 µM in experiment [1] and 55.1 ± 2.43 µM in experiment [2]. `O=C(/C=C\c1ccc(O)cc1)OC[C@@]12C[C@@H](O)[C@@H]3C[C@@H](O[C@@H](O)[C@@H]31)O2` [Compound 4]: the IC50 in experiment [1] amounted to 19.4 ± 0.24 µM. `COc1cc(CCCO)ccc1O[C@H](CO)[C@@H](O)c1cc(OC)c(O)c(OC)c1` [Compound 9b]: the IC50 worked out at 10.1 ± 0.67 µM in experiment [1] and 52.6 ± 6.89 µM in experiment [2].

Turning to `O=C(/C=C/c1ccc(O)cc1)OC[C@@]12C[C@@H](O)[C@@H]3C[C@@H](O[C@@H](O)[C@@H]31)O2` [Compound 3], the IC50 in experiment [1] came to 35.6 ± 1.04 µM. Turning to `CO[C@H]1C[C@H]2C=C[C@](O)(COC(=O)/C=C/c3ccc(O)cc3)[C@H]2[C@H](OC)O1` [Compound 7], the IC50 in experiment [1] is 50.6 ± 2.97 µM. The “Neuroprotective effect … (cell viability)” value in experiment [3] (compound 50 μM) is “apparent protective activity”. For the compound `CO[C@@H]1O[C@@H]2C[C@@H]3[C@H]1[C@@](COC(=O)/C=C\c1ccc(O)cc1)(C[C@H]3O)O2` [Compound 2], in experiment [1], the IC50 was 34.2 ± 3.03 µM. Take `O=C1O[C@H]([C@@H](O)CO)C(O)=C1O` [Ascorbic acid, ascorbic acid, reference compound]: the half-inhibitory concentration (IC50) came to 24.3 ± 0.41 µM in experiment [1] and 13.3 ± 1.86 µM in experiment [2].

Regarding `COc1cc([C@H]2Oc3c(OC)cc(CCCO)cc3[C@@H]2CO)cc(OC)c1O` [Compound 15a, 5-methoxydihydrodehydrodiconiferyl alcohol], the IC50 is 17.2 ± 0.89 µM in experiment [1] and 40.4 ± 6.09 µM in experiment [2].

Take `COc1cc(C2c3c(cc(OC)c(O)c3OC)CC(CO)C2CO)cc(OC)c1O` (stereo not shown) [Compound 16b, polystachyol]: the IC50 in experiment [1] worked out at 26.2 ± 2.24 µM; in experiment [2] it was 96.2 ± 8.34 µM. On to `COC1CC2C(O)CC(O)(COC(=O)C=Cc3ccc(O)cc3)C2C(OC)O1` (stereo not shown) [Compound 5], for which the IC50 in experiment [1] came to 32 ± 1.76 µM. The “Neuroprotective effect … (cell viability)” value in experiment [3] (compound 50 μM) is “apparent protective activity”. For `COc1cc(C2OC(c3ccc(O)c(OC)c3)C(CO)C2CO)ccc1O` (stereo not shown) [Compound 17a, neo-olivil], the 50% inhibitory concentration (IC50) in experiment [1] turned out to be 5.96 ± 0.3 µM; in experiment [2], 40.8 ± 5.98 µM. Consider `COC1OC2CC3C(O)CC(COC(=O)C=Cc4ccc(O)cc4)(O2)C13` (stereo not shown) [Compound 1], for which the IC50 in experiment [1] worked out at 15.3 ± 1.37 µM. Further, in experiment [3] (compound 50 μM, NAC 50 μM, 6-OHDA 150 μM), the “Neuroprotective effect compared with the positive control NAC” value is listed as “comparable to the positive control NAC”. Further, the “Neuroprotective effect … (cell viability)” value in experiment [3] (compound 50 μM) was “apparent protective activity”. On to `COc1cc([C@@H]2Oc3c(O)cc(CCCO)cc3[C@H]2CO)ccc1O` [Compound 12b, cedrusin], for which the IC50 in experiment [1] was determined as 12.3 ± 0.24 µM; in experiment [2], 44.3 ± 2.05 µM.

As for `COc1cc(CCCO)ccc1O[C@@H](CO)[C@H](O)c1cc(OC)c(O)c(OC)c1` [Compound 9a], the 50% inhibitory concentration (IC50) in experiment [1] was 9.39 ± 0.97 µM; in experiment [2], 47.5 ± 7.24 µM. Consider `COc1cc([C@@H]2Oc3c(OC)cc(CCCO)cc3[C@H]2CO)ccc1O` [Compound 14b, dihydrodehydrodiconiferyl alcohol], for which the IC50 in experiment [1] worked out at 14.1 ± 1.3 µM. Still for that read-out and setting: the value for `COc1ccc([C@@H]2Oc3c(O)cc(CCCO)cc3[C@H]2CO)cc1OC` [Compound 13b, 4-O-methylcedrusin] was 37.1 ± 8.17 µM. With `NCCc1cc(O)c(O)cc1O` [Compound 6-OHDA, 6-hydroxydopamine, reference compound], the “Inhibition ratio of PC12 cell viability (6-OHDA-induced cell injury)” value in experiment [3] (6-OHDA at 150 μM) is listed as 52.68%.

The IC50 is the concentration at which inhibition is half-maximal.
